Assay [1] has as its target 72 kDa type IV collagenase (Rat, UniProt P33436). The assay can be described thus: enzyme-based fluorimetric assay. The following applies: pH 7.5; 25 °C. From the text: (§1) For this assay, the reagents used as follows. The substrate corresponds to Mca-Pro-Leu-Gly-Leu-Dpa-Ala-Arg 25 mm in assay buffer. This low-fluorescent peptide is cleaved by MMPs to provide Mca-Pro-Leu-Gly, which is intensely fluorescent at an excitation at 340 nm and emission at 405 nm. While the enzymes pro-MMP-2 250 pm and MMP-9 (recombinant catalytic sequence) 500 pm in assay buffer. The assay buffer consists of Tris HCl 0.1 m, pH 7.5, NaCl 0.1 m, CaCl2 10 mm, 0.05% v/v BRIJ35, APMA (p-aminophenylmercuric acetate) 1 mm. This was carried out in 96-well plate, a solution of […] at the appropriate concentration and […] was incubated together at 25 °C for 30 min, and […] of substrate solution was added and the plate was further incubated 3 h at 37 °C. The incubation solutions were quenched with acetic acid ([…] soln.) and their fluorescence was recorded with the help of a plate reader spectrometer. The inhibitory activities were calculated against a control and IC50 curves, derived from 6 different inhibitor concentrations, extrapolated by means of statistical analysis program graphpad prism (v. 4.0; San Diego, CA, USA). Each inhibitor concentration was used in triplicate and the experiments run twice.

The target of assay [2] is Matrix metalloproteinase-9 (Rattus norvegicus, UniProt P50282). The assay can be described thus: enzyme-based fluorimetric assay. The following applies: pH 7.5; 25 °C.
Description: as §1

72 kDa type IV collagenase, sequence (P33436 whole entry): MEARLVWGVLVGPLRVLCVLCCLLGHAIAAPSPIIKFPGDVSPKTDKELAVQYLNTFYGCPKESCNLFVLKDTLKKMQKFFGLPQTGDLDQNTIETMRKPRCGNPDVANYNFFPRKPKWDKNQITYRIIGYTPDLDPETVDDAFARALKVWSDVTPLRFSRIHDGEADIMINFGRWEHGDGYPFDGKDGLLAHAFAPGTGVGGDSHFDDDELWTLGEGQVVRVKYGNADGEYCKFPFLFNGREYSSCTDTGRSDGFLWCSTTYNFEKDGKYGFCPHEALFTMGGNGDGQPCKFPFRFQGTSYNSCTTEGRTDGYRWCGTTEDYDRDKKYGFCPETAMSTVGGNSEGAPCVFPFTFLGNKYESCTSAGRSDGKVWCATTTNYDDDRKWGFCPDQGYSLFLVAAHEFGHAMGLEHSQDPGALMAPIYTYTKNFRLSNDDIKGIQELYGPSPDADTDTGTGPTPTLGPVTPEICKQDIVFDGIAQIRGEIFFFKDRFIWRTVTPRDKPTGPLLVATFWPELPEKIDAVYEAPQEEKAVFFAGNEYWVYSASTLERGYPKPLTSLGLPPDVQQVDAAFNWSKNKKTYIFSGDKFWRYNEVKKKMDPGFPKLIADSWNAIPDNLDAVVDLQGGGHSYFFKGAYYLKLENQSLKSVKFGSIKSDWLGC
Matrix metalloproteinase-9, sequence (P50282 whole entry): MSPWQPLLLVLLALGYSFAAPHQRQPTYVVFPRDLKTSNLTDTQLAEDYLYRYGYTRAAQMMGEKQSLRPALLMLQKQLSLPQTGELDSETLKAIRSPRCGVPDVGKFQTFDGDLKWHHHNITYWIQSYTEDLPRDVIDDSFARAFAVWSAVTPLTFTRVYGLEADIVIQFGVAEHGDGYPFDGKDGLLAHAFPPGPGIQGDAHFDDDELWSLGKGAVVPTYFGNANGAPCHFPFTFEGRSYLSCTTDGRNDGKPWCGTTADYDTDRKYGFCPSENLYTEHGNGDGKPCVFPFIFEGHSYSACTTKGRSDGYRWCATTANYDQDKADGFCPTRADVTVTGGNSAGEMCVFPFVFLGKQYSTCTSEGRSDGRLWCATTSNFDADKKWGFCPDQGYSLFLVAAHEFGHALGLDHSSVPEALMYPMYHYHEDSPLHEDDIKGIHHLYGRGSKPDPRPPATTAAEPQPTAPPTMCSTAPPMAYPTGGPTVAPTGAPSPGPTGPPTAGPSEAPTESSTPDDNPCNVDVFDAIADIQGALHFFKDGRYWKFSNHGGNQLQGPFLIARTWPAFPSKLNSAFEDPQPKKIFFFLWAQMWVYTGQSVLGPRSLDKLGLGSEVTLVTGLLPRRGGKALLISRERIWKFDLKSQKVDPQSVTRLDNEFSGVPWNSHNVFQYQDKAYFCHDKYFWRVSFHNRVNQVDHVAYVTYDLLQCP

Take `COc1ccc(-c2cc(-c3ccc(NS(=O)(=O)c4ccc(C)cc4)cc3)nn2-c2nc(NCCCN)nc(NCCCN)n2)cc1` [N-(4-(1-(4,6-bis((3-aminopropyl)amino)-1,3,5-triazin-2-yl)-5-(4-methoxyphenyl)-1H-pyrazol-3-yl)phenyl)-4-methylbenzenesulphonamide (8c)]: the IC50 is 189 nM in assay [1] and 156 nM in assay [2].
As to `COc1ccc(-c2cc(-c3ccc(NS(=O)(=O)c4ccc(C)cc4)cc3)nn2-c2nc(Nc3ccc(O)cc3)nc(Nc3ccc(O)cc3)n2)cc1` [N-(4-(1-(4,6-bis((4-hydroxyphenyl)amino)-1,3,5-triazin-2-yl)-5-(4-methoxyphenyl)-1H-pyrazol-3-yl)phenyl)-4-methylbenzenesulphonamide (8e)], the IC50 in assay [1] was found to be 8.12 nM; in assay [2], 2.34 nM.
Taken in the same sequence, the figures for `COc1ccc(Nc2nc(Nc3ccc(OC)cc3)nc(-n3nc(-c4ccc(NS(=O)(=O)c5ccc(C)cc5)cc4)cc3-c3ccc(OC)cc3)n2)cc1` [N-(4-(1-(4,6-bis((4-methoxyphenyl)amino)-1,3,5-triazin-2-yl)-5-(4-methoxyphenyl)-1H-pyrazol-3-yl)phenyl)-4-methylbenzenesulphonamide (8f)] were 18.6 nM and 10.2 nM.
Regarding `COc1ccc(-c2cc(-c3ccc(NS(=O)(=O)c4ccc(C)cc4)cc3)nn2-c2nc(Nc3ccc([N+](=O)[O-])cc3)nc(Nc3ccc([N+](=O)[O-])cc3)n2)cc1` [N-(4-(1-(4,6-bis((4-nitrophenyl)amino)-1,3,5-triazin-2-yl)-5-(4-methoxyphenyl)-1H-pyrazol-3-yl)phenyl)-4-methylbenzenesulphonamide (8h)], the IC50 in assay [1] is 76.6 nM; in assay [2], 68.5 nM.
For `CCNc1nc(NCC)nc(-n2nc(-c3ccc(NS(=O)(=O)c4ccc(C)cc4)cc3)cc2-c2ccc(OC)cc2)n1` [N-(4-(1-(4,6-bis(ethylamino)-1,3,5-triazin-2-yl)-5-(4-methoxyphenyl)-1H-pyrazol-3-yl)phenyl)-4-methylbenzenesulphonamide (8b)], the 50% inhibitory concentration (IC50) amounted to 332 nM in assay [1] and 302 nM in assay [2].
Taken in the same sequence, the figures for `CNc1nc(NC)nc(-n2nc(-c3ccc(NS(=O)(=O)c4ccc(C)cc4)cc3)cc2-c2ccc(OC)cc2)n1` [N-(4-(1-(4,6-bis(methylamino)-1,3,5-triazin-2-yl)-5-(4-methoxyphenyl)-1H-pyrazol-3-yl)phenyl)-4-methylbenzenesulphonamide (8a)] were 666 nM and 625 nM.
With `COc1ccc(-c2cc(-c3ccc(NS(=O)(=O)c4ccc(C)cc4)cc3)nn2-c2nc(Nc3ccccc3C)nc(Nc3ccccc3C)n2)cc1` [N-(4-(1-(4,6-bis(o-tolylamino)-1,3,5-triazin-2-yl)-5-(4-methoxyphenyl)-1H-pyrazol-3-yl)phenyl)-4-methylbenzenesulphonamide (8g)], the IC50 in assay [1] turned out to be 67.1 nM; in assay [2], 58.2 nM.
As for `COc1ccc(-c2cc(-c3ccc(NS(=O)(=O)c4ccc(C)cc4)cc3)nn2-c2nc(Nc3ccccc3)nc(Nc3ccccc3)n2)cc1` [N-(4-(1-(4,6-bis(phenylamino)-1,3,5-triazin-2-yl)-5-(4-methoxyphenyl)-1H-pyrazol-3-yl)phenyl)-4-methylbenzenesulphonamide (8d)], the 50% inhibitory concentration (IC50) in assay [1] stood at 123 nM; in assay [2], 105 nM.
For `COc1ccc(-c2cc(-c3ccc(NS(=O)(=O)c4ccc(C)cc4)cc3)nn2-c2nc(N3CCNCC3)nc(N3CCNCC3)n2)cc1` [N-(4-(1-(4,6-di(piperazin-1-yl)-1,3,5-triazin-2-yl)-5-(4-methoxyphenyl)-1H-pyrazol-3-yl)phenyl)-4-methylbenzenesulphonamide (8i)], the IC50 was determined as 55.3 nM in assay [1] and 47.1 nM in assay [2].
`COc1ccc(-c2cc(-c3ccc(NS(=O)(=O)c4ccc(C)cc4)cc3)nn2-c2nc(N3CCOCC3)nc(N3CCOCC3)n2)cc1` [N-(4-(1-(4,6-dimorpholino-1,3,5-triazin-2-yl)-5-(4-methoxyphenyl)-1H-pyrazol-3-yl)phenyl)-4-methylbenzenesulphonamide (8j)]: the IC50 in assay [1] came out at 42.3 nM; in assay [2], 31.2 nM.

Usually IC50 stands for the concentration needed to halve the response being measured. Low readings indicate greater potency in that assay, high ones weaker potency in that assay.

(Values after BindingDB's records for doi:10.1111/cbdd.12807 (Zhejiang Hospital, 2016).)
